# Laboratory results published in patent publication US8846914B2, “Compositions to effect neuronal growth” (Neuralstem, Inc., priority 2003, dated 2014).
# Legend:
# [1] = test system: hippocampal stem cells; experiment: Differentiation into mature neurons (BrdU+/MAP-2ab+), three-week treatment; format: cell-based, human; settings: three weeks of continuous treatment; two-day BrdU pulse; FIG. 12
# Method: FIG. 12 is a bar graph illustrating an example of differentiation into mature neurons as a percentage of control in response to a three-week treatment with the test compounds. Mitotic cells were labeled with BrdU. BrdU-positive cells were double-stained with the marker of mature neurons, anti-MAP-2 antibody. Total BrdU-immunostained cells and BrdU+/MAP-2ab+ co-stained cells indicating neurons were counted.
# In FIG. 12 the exact number of dividing cells and neurons are determined to confirm that the increase in neurons is due to proliferation followed by differentiation. In FIG. 12, hippocampal stem cells are plated in a 96-well plate. The cells are then treated with one of the agents listed along with a two-day pulse of bromodeoxyuridine which is taken up into dividing cells thereby labeling mitotic cells with BrdU. After three weeks of continuous treatment with the listed agents, the cells are fixed and stained for BrdU immunoreactivity. BrdU-positive cells are double-stained with the marker of mature neurons, anti-MAP-2 to identify cells that have differentiated into mature neurons. The BrdU+/MAP-2ab+ co-stained cells which have differentiated into mature neurons are distinguished from control BrdU-immunostained cells which are proliferating stem cells.
# [2] = test system: dentate gyrus of C57B16 adult mice; experiment: In vivo neurogenesis, BrdU immunostaining of dentate gyrus; design: species or system mouse; settings: for Neurogenesis in the dentate gyrus (BrdU-immunopositive cells): 10 mg/kg orally for ten days, healthy adult mice
# Method: FIG. 9A and FIG. 9B are micrographs illustrating an example of BrdU immunostaining of a mouse dentate gyrus having been administered a vehicle and a compound. Mice were treated daily with various test compounds at 10 mg/kg p.o. (FIG. 9B) or vehicle alone (FIG. 9A) for ten days. The animals were injected daily with BrdU for the first seven days. At the end of the ten-day period, the animals were perfused and their brains sliced for immunostaining with anti-BrdU antibody and analysis.
# FIGS. 10A and 10B are bar graphs illustrating an example of quantification of BrdU-immunopositive cells in the in vivo neurogenesis testing the compounds. Mice were treated with the various test compounds for in vivo neurogenesis in two cohorts. The cells from one dentate gyrus of each mouse in each test group were counted and average BrdU values immunoreactivity are shown. The symbols, * and ** indicate immunoreactivity increases of statistical significant the indicated p values. Seven compounds are especially effective in increasing the neurogenesis in the dentate gyrus of the healthy adult mice, the area known to have continued adult neurogenesis.
# In one embodiment, fifteen of the compounds from Table I above are administered orally to mice at 10 mg/kg for ten days and co-administered bromodeoxyuridine (BrdU) by intraperitoneal injection for the first […] days. […] For example, in FIGS. 9A and 9B, BrdU immunostainings of hippocampal slices from two mice treated with either vehicle alone or NSI-158 are illustrated. In FIGS. 9A and 9B, the mice are treated daily for ten days with vehicle alone (FIG. 9A) or orally with various test compounds at 10 mg/kg (FIG. 9B). The animals are injected daily with BrdU for the first seven days. […]
# Mice were treated with the various test compounds for in vivo neurogenesis in two cohorts as described above. The cells from one dentate gyrus of each mouse in each test group were counted and average BrdU immunoreactivity values are calculated. […]
# [3] = test system: caspase-3 activation induced by beta amyloid peptide 25-35; experiment: Apoptosis induced by beta amyloid peptide 25-35 (caspase-3); format: cell-based, human; settings: FIG. 8
# Excerpt: (§1) FIG. 8 is a bar graph illustrating an example of a neuroprotection profile of the compounds against apoptosis, also known as programmed cell death, induced by beta amyloid peptide 25-35 as a model of Alzheimer's disease. Caspase-3 activation plays a central role in apoptosis and is an indicator of the occurrence of apoptosis if detected. […] Bars represent mean±SD from five wells.
# Another assay used to determine the ability of a compound to provide neuroprotection is an apoptosis assay. Apoptosis is measured using the activity of an early matter of the programmed cell death pathway, caspase-3. Following 24 hours or 48 hours of apoptotic-induction in the presence and absence of compound treatment, the media is removed from the wells, and 50 μl cell lysis buffer is added to each well, 50 μl of 2× reaction buffer containing 10 mM DTT is then added to the lysate in each well. The contents of two wells are combined (for example: rows A/H, B/G, C/F, D/E), and 5 μl of substrate is added per well as recommended in the protocol for a caspase-3 fluorometric assay kit (Biovision) known in the art. The plate is incubated at 37° C. for 60 minutes. The contents of each well are then transferred to a fresh plate, and the fluorescence is determined with an […] using a fluorescent plate reader such as the Molecular Devices Gemini Fluorescent Plate Reader. Caspase-3 activity is expressed as μM of cleaved substrate per hour. Substrate concentration in μM is run for each plate to determine activity values for each treatment condition.
# as §1, with “apoptosis” for “apoptosis, also known as programmed cell death,”, “25-35, part of a larger peptide found in plaques in Alzheimer's brains,” for “25-35”
# [4] = test system: Differentiating hippocampal stem cells; experiment: Committed neuronal progenitors (Ki-67 / TuJ1 co-staining); format: cell-based, human; settings: treated for 10 days; FIG. 14
# Method: FIG. 14 is a micrograph illustrating an example of production of committed neuronal progenitors by NSI-106. Differentiating hippocampal stem cells were treated with NSI-106 for 10 days, fixed, and stained for Ki-67 protein as well as TuJ1. Ki-67 protein is an endogenous marker of mitosis.
# FIG. 14 illustrates committed neuronal progenitor production by NSI-106. Differentiating hippocampal stem cells are treated with NSI-106 for 10 days, fixed, and stained for Ki-67 protein to detect dividing cells as well as TuJ1 to detect cells that have differentiated into neurons, Ki-67 protein is an endogenous marker of mitosis.
compound,measurement,setting,value
CS(=O)(=O)N1CCCCC1C(=O)NCc1ccc(Nc2c(C3CC3)nc3ccccn23)cc1 (centres unmarked) [NSI-127],Proliferation and differentiation into mature neurons (BrdU+/MAP-2ab+ cells),[1],induce proliferation and then differentiation into neurons
CCN(CCNC(=O)c1cccnc1NCCC(C)C)Cc1cccnc1 [NSI-190],Proliferation and differentiation into mature neurons (BrdU+/MAP-2ab+ cells),[1],induce proliferation and then differentiation into neurons
NC(=O)C1CCCN1C(=O)c1cccnc1NCC1CCCCC1 (centres unmarked) [NSI-158],Neurogenesis in the dentate gyrus (BrdU-immunopositive cells),[2],especially effective at promoting neurogenesis
same,Dividing cells in the dentate gyrus versus vehicle (BrdU immunostaining),"[2]; 10 mg/kg p.o. daily for ten days, FIG. 9A/9B",far greater dividing cells
COc1ccc(CCNc2ncc(C(N)=O)c(NC3CC3)n2)cc1OC [NSI-130],Inhibition of apoptosis induced by beta amyloid peptide 25-35,[3],inhibit apoptosis
CC(C)CCNc1ncccc1C(=O)N1CCN(Cc2ccccc2)CC1 [NSI-189],Neurogenesis in the dentate gyrus (BrdU-immunopositive cells),[2],especially effective at promoting neurogenesis
O=C(NCc1nc2ccccn2c1NCC1CCCO1)Oc1ccccc1 (centres unmarked) [NSI-182],Inhibition of apoptosis induced by beta amyloid peptide 25-35,[3],inhibit apoptosis
O=C(COc1ccccc1)NCc1nc2ccccn2c1NCC1CCCO1 (centres unmarked) [NSI-183],Proliferation and differentiation into mature neurons (BrdU+/MAP-2ab+ cells),[1],induce proliferation and then differentiation into neurons
CCCCNc1c(C2CCN(C(=O)CN(CC(C)C)S(C)(=O)=O)CC2)nc2cnccn12 [NSI-106],Ki-67 and TuJ1 co-stained cells,[4],significant number of cells are co-stained
NC(=O)c1cnc(NCc2ccc(Cl)cc2)nc1NCC1CCCCC1 [NSI-144],Inhibition of apoptosis induced by beta amyloid peptide 25-35,[3],inhibit apoptosis
same,Proliferation and differentiation into mature neurons (BrdU+/MAP-2ab+ cells),[1],induce proliferation and then differentiation into neurons
